According to paper PMC4865847, “Putative histidine kinase inhibitors with antibacterial effect against multi-drug resistant clinical isolates identified by in vitro and in silico screens” (Scientific Reports, 2016):
Values joined by “and” are separate entries in the source; they are usually repeats but may differ in a detail not shown here. Equal entries are not always repeated. Where two headings read alike, the source gives them in different places.

What was measured:
S. aureus PhoR (PhoR^S) = S. aureus PhoR (PhoR^S) (Staphylococcus aureus, UniProt Q2FXN7); experiment: In vitro autophosphorylation kinase assay with γ-32P-ATP, PhoR^S; format: biochemical; conditions: for inhibition at 2000 µM: read-out: inhibition of PhoR^S autophosphorylation; for IC50: IC50 PhoR^S, autophosphorylation, one time point (30 sec), 10% DMSO
Summary of the method: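 ≈4 μM HK incubated with up to 20 mM fragment in 50 mM Tris HCl pH 8.5, 50 mM KCl, 5 mM MgCl2, 0.5 mM EDTA, 0.1 mM DTT; started with γ-32P-ATP (0.03–0.06 μM ATP final). Quenched with SDS sample buffer/EDTA, run on SDS-PAGE unheated, phosphoprotein quantified by phosphor-imaging.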

Escherichia coli = experiment: Antibacterial susceptibility testing (MIC/MBC), E. coli; format: cell-based; conditions: Escherichia coli
Experimental: Minimal inhibitory concentrations (MICs) were determined following a standard double-dilution method. […] For S. pneumoniae MICs were determined by adapting the standard double-dilution method to anaerobic conditions and of this microorganism (use of Todd Hewitt Yeast extract with 200 U/mL of catalase and continuous monitoring of growth).

S. pneumoniae WalK = target: T1, S. pneumoniae WalK (Streptococcus pneumoniae, UniProt Q8DPL8); experiment: In vitro autophosphorylation kinase assay with γ-32P-ATP, WalK; format: biochemical
T1 construct: WalK (amino acids from 208 to 449); N-terminal His6-3C site of vector pOPINF (own knowledge of the vector); made in house; host or cells: E. coli RIL
Summary of the method: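 Autophosphorylation, initiated with γ-32P-ATP (0.1 μCi/μl; 0.03–0.06 μM ATP final), quenched with SDS/EDTA sample buffer, resolved by SDS-PAGE and quantified by phosphor-imaging. ≈4 μM kinase, fragments up to 20 mM, pH 8.5 Tris buffer with Mg2+; DMSO-matched ligand-free controls.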

HK NblS (CA domain) = experiment: Differential scanning fluorimetry (DSF), NblS; format: binding, Synechococcus sp. PCC 7942
Experimental: (§1) To monitor protein unfolding, the fluorescent dye Sypro orange was used[26]. Differential scanning fluorimetry (DSF) experiments were conducted in the iCycleriQ Real Time Detection System (Bio-Rad, Hercules, CA). Solutions of 20 μl of 0.1 mg/ml protein (final concentration), 200 μM fragment cocktails or individual fragments (final concentration), 10X sypro orange (final concentration) and buffer (100 mM TrisCl pH 8, 150 mM NaCl) were added to the wells of the 96-well iCycler iQ PCR plate. The plate was heated from 20 to 85 or 99 °C at a heating rate of 1 °C/min. The fluorescent intensity was measured with Ex/Em: 490/530 nm. Prism GraphPad v.5 was used for curve fitting and statistical analysis.

E. coli EnvZ = target: T2, E. coli EnvZ (Escherichia coli, UniProt P0AEJ4); experiment: Aggregation analysis by native-PAGE, EnvZ; conditions: 2 mM, 10% DMSO
T2 construct: The catalytic portion (DHp and CA domain) of E. coli PhoR (PhoR^E), E. coli EnvZ; made in house; host or cells: E. coli RIL
Experimental: E. coli PhoR and EnvZ, and S. aureus PhoR ([…], final concentration) were prepared in kinase buffer. […] DMSO in the assays was maintained to a final concentration 10% (v/v). After 30 min of incubation at room temperature Native polyacrylamide gel electrophoresis (Native-PAGE) loading buffer was added and samples loaded. Coomassie blue staining was used for protein visualization.

[1] = target: T3, HK WalK (DHp and CA domain) (Streptococcus pneumoniae, UniProt Q8DPL8); experiment: Differential scanning fluorimetry (DSF), WalK; format: binding
T3 construct: WalK (amino acids from 208 to 449); N-terminal His6-3C site of vector pOPINF (own knowledge of the vector); made in house; host or cells: E. coli RIL
Experimental: as §1

Gram positive strains = experiment: Antibacterial susceptibility testing, Gram positive strains (summary); format: cell-based
Experimental: (§2) Bacterial strains used in this study for antibacterial susceptibility testing (Table S5) were propagated using standard microbiological procedures. Minimal inhibitory concentrations (MICs) were determined following a standard double-dilution method. MICs were recorded as the lowest concentration of the compound where no visible growth was observed. After plating the dilutions around the MIC or growing them in fresh MH media, minimal bactericidal concentration (MBC) was recorded as the lowest concentration of the compound at which no colonies were formed or no growth was observed, respectively. For S. pneumoniae MICs were determined by adapting the standard double-dilution method to anaerobic conditions and of this microorganism (use of Todd Hewitt Yeast extract with 200 U/mL of catalase and continuous monitoring of growth).

Gram negative strains = experiment: Antibacterial susceptibility testing, Gram negative strains (summary); format: cell-based; conditions: read-out: MIC Gram negative
Experimental: as §2

NCI-60 tumor cell lines = test system: NCI-60 tumor cell lines; parameters: method as in PMID 11121759; conditions: 2.72 μg/ml (10 μM), one dose; maximum over cell lines; cited from earlier work
[2] = ATCC25276, strain ATCC 25276, read-out: MIC E. coli ATCC 25276
[3] = strain CFT 073, read-out: MIC E. coli CFT 073

Chain of S. aureus PhoR (PhoR^S) (Q2FXN7 entry or part of it): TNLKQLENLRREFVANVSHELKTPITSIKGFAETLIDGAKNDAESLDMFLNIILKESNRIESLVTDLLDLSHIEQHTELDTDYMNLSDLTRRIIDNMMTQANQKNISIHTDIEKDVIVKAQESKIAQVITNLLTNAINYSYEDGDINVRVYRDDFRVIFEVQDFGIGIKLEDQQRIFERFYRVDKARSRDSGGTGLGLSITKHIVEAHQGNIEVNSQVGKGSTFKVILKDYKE
T1 sequence (Q8DPL8 208-449): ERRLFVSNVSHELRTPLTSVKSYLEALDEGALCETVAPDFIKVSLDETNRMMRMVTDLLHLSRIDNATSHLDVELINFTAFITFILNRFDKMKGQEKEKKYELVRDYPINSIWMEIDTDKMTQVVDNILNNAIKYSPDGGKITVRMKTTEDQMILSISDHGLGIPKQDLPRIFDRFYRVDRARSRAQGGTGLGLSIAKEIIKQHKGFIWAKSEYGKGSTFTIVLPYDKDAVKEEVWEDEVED
T2 sequence (P0AEJ4 240-440): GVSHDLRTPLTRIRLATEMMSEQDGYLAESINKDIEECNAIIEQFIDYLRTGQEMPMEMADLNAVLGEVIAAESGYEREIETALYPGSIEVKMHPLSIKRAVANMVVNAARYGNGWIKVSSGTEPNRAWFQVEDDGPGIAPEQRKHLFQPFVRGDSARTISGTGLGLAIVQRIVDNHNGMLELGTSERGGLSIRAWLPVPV
T3 sequence (Q8DPL8 208-449): as the sequence (Q8DPL8 208-449) above

Row | SMILES | inhibition at 2000 µM (S. aureus PhoR (PhoR^S)) [%] | MIC (Escherichia coli; [2]) [µg/mL] | MIC (Escherichia coli; [3]) [µg/mL] | IC50 (S. pneumoniae WalK; autophosphorylation, one time point (30 sec), 10% DMSO, read-out: IC50 WalK) [µM] | inhibitory capacity for WalK autophosphorylation activity (S. pneumoniae WalK; single concentration 5 mM, 30 sec) | increase of NblS Tm (HK NblS (CA domain)) [°C] | HK aggregation, EnvZ (E. coli EnvZ) | increase of WalK Tm [1] [°C] | IC50 (S. aureus PhoR (PhoR^S)) | MBC (Gram positive strains; Staphylococcus aureus, MRSA, summary, read-out: MBCs against Gram-positives, including multi-drug resistant MRSA) [µg/mL] | MIC (Gram positive strains; summary over Gram positive strains) [µg/mL] | MIC (Gram negative strains) [µg/mL] | growth inhibition of NCI-60 cell lines (NCI-60 tumor cell lines) [%]
1 | CC(C)(C)c1ccc(O)c(CNc2ccccc2)c1 [S1.14, 4-tert-butyl-2-[(phenylamino)methyl]phenol] | > 75 | > 500 | > 500 | – | – | – | – | – | – | – | – | – | –
2 | Nc1nc(-c2ccc(Br)cc2)cs1 [F1, 4-(4-bromophenyl)-1,3-thiazol-2-amine] | – | > 500 | > 500 | > 2000 | weak inhibitory capacity | 2.1 | do not cause HK aggregation | 4.5 | – | – | – | – | –
3 | CC(=O)Nc1cccc(-c2ccccc2Cl)c1 [S1.7, N-[3-(2-chlorophenyl)phenyl]acetamide] | > 75 | > 500 | > 500 | – | – | – | – | – | 1000 µM and ~1000 µM | – | – | – | –
4 | CC[C@H](c1ccc(O)cc1)[C@@H](CC)c1ccc(F)cc1 [S1.13, 4-[(3S,4R)-4-(4-fluorophenyl)hexan-3-yl]phenol] | > 75 | > 500 | > 500 | – | – | – | – | – | 212 µM | ≤ 16 | ≥ 8 | > 500 | ≤ 19
